What was measured:
[1] = target: Gamma-aminobutyric acid receptor subunit alpha-1 (Rattus norvegicus, UniProt P62813); format: functional
[2] = target: T1, Alpha-2C adrenergic receptor (Homo sapiens, UniProt P18825); format: functional
T1 sequence (P18825 whole entry): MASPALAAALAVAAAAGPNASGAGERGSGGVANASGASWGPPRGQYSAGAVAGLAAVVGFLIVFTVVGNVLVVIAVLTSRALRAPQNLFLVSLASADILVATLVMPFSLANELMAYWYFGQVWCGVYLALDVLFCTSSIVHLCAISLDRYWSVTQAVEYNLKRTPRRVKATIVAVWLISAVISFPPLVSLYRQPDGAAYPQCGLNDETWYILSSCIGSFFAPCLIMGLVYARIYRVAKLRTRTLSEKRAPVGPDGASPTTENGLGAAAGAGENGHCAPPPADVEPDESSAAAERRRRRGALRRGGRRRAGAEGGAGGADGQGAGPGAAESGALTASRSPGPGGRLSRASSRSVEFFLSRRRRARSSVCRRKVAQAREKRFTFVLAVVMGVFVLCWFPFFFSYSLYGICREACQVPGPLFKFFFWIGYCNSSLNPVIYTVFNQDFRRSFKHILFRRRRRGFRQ

[3] = target: T2, Muscarinic acetylcholine receptor M1 (Homo sapiens, UniProt P11229); format: functional
T2 sequence (P11229 whole entry): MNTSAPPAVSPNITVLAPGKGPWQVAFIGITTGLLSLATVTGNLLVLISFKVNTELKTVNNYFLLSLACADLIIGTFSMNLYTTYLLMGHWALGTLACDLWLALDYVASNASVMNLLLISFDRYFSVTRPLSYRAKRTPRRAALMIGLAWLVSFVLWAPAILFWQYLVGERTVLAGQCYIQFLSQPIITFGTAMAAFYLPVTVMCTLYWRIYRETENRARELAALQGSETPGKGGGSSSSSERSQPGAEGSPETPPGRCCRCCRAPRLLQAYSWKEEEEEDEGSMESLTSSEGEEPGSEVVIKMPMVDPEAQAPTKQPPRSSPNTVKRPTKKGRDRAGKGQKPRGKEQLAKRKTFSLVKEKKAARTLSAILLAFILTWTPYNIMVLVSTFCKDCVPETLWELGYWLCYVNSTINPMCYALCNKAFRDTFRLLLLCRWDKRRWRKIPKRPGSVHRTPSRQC

[4] = target: Sodium-dependent noradrenaline transporter (Homo sapiens, UniProt P23975)
Sodium-dependent noradrenaline transporter, sequence (P23975 whole entry): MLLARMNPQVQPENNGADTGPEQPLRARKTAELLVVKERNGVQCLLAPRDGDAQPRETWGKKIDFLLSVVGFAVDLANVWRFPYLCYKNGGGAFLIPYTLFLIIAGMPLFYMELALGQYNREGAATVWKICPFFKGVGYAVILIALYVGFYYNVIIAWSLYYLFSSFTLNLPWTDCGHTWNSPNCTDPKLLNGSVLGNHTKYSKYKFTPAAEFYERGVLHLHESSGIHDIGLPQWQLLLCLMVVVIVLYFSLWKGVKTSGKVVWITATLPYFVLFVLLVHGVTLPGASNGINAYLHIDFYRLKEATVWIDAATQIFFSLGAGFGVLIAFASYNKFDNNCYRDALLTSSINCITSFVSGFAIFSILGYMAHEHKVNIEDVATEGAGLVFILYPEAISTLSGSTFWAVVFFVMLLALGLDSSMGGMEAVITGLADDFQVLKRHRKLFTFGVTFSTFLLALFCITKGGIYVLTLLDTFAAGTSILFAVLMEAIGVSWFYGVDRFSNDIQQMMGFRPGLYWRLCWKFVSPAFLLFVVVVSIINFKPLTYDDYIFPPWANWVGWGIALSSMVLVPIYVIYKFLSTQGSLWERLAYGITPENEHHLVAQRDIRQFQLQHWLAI

[5] = target: T3, Alpha-2A adrenergic receptor (Homo sapiens, UniProt P08913)
T3 sequence (P08913 whole entry): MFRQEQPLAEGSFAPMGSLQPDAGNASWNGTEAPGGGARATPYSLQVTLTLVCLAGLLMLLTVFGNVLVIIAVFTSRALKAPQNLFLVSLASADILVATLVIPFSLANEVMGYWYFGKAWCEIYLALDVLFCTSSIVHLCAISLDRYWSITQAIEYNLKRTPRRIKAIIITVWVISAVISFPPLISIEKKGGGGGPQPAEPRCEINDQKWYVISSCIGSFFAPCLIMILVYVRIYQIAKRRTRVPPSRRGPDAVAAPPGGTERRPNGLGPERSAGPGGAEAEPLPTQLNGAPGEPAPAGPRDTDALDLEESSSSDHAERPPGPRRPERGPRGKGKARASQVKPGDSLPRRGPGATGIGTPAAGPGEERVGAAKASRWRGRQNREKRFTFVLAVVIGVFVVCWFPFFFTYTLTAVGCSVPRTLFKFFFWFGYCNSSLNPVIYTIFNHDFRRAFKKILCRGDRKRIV

[6] = target: Vascular endothelial growth factor receptor 2 (Homo sapiens, UniProt P35968); format: functional
Vascular endothelial growth factor receptor 2, sequence (P35968 whole entry): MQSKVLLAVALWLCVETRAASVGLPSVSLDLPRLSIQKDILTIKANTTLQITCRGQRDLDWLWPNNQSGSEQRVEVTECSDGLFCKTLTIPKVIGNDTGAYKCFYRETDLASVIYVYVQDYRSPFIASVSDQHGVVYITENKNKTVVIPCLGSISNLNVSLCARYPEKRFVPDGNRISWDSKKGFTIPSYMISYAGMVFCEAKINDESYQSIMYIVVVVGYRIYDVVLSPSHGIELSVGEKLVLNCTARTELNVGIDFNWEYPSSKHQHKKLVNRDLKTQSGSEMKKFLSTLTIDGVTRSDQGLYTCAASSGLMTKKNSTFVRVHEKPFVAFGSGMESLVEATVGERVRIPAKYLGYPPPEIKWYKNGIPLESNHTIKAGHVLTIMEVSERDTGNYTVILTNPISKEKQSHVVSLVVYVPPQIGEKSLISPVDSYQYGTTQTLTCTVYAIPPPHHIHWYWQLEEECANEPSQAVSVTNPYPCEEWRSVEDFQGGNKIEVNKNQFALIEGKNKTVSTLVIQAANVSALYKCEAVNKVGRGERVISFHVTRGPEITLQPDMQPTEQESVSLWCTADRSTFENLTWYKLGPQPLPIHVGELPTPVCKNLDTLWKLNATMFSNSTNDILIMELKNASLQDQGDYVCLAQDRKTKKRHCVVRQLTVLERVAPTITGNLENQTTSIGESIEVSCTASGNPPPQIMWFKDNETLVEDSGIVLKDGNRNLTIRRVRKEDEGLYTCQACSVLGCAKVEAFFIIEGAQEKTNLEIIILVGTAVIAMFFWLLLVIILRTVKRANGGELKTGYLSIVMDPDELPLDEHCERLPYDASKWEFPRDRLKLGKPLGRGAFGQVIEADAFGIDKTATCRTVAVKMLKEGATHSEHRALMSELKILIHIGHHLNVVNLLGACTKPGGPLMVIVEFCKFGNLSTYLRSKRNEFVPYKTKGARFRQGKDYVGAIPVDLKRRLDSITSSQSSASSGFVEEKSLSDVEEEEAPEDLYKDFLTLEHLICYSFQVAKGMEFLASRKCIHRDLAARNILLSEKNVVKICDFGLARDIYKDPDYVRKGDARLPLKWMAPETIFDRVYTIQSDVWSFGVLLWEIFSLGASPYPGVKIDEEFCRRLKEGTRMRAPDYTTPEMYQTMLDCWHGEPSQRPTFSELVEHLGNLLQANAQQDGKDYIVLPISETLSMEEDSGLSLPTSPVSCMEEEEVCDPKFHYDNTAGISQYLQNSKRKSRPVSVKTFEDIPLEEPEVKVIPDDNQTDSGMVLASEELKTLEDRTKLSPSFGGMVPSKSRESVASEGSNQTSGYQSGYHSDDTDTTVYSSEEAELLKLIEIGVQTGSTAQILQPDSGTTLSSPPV

Measured: AC50
Also: assay procedure not described here.

Gamma-aminobutyric acid receptor subunit alpha-1, sequence (P62813 whole entry): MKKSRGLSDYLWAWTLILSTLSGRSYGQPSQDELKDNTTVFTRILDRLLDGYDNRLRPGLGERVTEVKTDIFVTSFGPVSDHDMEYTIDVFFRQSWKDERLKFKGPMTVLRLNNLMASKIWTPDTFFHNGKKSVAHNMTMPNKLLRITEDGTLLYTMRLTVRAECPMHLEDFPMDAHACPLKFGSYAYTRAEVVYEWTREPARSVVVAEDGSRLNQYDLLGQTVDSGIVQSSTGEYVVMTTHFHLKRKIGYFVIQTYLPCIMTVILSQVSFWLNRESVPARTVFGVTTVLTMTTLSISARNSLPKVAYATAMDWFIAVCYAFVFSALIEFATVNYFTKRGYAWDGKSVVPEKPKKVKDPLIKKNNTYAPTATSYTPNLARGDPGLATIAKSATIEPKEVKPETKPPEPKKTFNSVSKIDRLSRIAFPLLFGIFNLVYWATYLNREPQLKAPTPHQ

CCN(CC)C(=O)C1(c2ccccc2)CC1CN (stereo unspecified)
> 30 µM: [1] | [2] | [3]

CN(C)C(=O)Oc1cccc([N+](C)(C)C)c1 [NEOSTIGMINE]
> 30 µM: [4] | [5] | [6]

— ChEMBL document CHEMBL5291721, “A preclinical secondary pharmacology resource illuminates target-adverse drug reaction associations of marketed drugs” (Nat Commun, 2023)
